Source: patent US10259810B2, “N-sulfonylated pyrazolo[3,4-b]pyridin-6-carboxamides and method of use” (AbbVie S.à.r.l., priority 2015, dated 2019)

What was measured:
Type in all cases: cell-based
[1] = target: T1, CFTR ΔF508 (Homo sapiens, UniProt P13569, DEL508-508); test: Chronic TECC assay, primary bronchial epithelial cells of CF patients homozygous for CFTR ΔF508 (corrector, co-corrector and potentiator); conditions: chronic TECC, AUC = full area under the curve upon forskolin stimulation; for EC50: read-out: EC50 (nM) (AUC**); for % Activity at 1 μM (AUC**): test compound at 1 μM; for % Activity at 3 μM (AUC**): test compound at 3 μM
T1 construct: bronchial epithelial cells isolated from CF patients homozygous for the CFTR ΔF508 mutation; McGill University; Asterand; University of North Carolina hAEC-CF; host or cells: primary human bronchial epithelial cells from CF patients homozygous for ΔF508, differentiated at air-liquid interface
T1 sequence (P13569 with tags, fused parts or gaps DEL508-508): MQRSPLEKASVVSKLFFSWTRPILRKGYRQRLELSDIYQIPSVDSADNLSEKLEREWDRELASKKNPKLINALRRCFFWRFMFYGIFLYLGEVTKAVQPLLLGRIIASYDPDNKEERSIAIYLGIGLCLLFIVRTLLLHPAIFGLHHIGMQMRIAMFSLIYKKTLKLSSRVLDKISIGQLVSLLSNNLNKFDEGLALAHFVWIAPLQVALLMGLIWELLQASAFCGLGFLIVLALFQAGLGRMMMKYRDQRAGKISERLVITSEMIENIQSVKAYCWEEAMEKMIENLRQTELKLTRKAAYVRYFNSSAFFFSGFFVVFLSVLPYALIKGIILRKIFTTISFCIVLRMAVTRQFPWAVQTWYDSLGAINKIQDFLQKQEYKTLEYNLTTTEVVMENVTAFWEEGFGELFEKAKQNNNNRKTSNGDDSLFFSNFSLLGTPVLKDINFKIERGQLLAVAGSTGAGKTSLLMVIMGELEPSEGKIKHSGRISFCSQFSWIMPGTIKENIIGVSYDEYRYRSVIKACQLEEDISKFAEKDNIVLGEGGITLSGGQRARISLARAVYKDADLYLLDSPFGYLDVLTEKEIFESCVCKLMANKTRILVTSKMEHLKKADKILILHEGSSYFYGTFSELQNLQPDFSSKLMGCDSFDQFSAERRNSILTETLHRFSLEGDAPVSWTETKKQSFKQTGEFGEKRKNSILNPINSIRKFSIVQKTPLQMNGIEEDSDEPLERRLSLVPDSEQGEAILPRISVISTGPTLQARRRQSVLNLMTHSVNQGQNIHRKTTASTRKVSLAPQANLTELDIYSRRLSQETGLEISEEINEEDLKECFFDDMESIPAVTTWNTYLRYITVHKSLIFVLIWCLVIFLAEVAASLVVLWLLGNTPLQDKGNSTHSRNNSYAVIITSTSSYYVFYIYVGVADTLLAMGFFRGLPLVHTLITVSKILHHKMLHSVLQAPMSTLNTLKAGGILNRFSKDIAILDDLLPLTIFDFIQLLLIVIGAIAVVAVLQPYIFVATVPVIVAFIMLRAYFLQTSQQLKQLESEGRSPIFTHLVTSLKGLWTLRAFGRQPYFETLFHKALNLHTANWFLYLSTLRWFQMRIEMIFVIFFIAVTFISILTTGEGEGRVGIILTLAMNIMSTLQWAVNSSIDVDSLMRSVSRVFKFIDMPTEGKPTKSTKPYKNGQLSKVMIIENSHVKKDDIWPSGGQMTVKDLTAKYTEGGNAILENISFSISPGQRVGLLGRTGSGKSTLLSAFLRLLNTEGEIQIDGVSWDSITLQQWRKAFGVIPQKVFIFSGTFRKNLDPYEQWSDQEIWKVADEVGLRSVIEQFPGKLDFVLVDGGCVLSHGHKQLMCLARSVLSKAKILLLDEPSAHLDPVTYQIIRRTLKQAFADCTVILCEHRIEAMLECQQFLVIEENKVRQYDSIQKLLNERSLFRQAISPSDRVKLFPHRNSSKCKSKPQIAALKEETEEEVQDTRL
How it was run: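 Primary bronchial epithelial cells from ΔF508-homozygous CF patients on collagen IV-coated Transwells were chronically treated with test compound plus corrector and potentiator, which were re-added before recording. Ieq was derived from PD and Rt in NaCl-Ringer, pH 7.4, at 37° C, with apical amiloride and bilateral forskolin, recorded every 2 min over 20 min. Ieq increase was normalized to controls, and EC50 was taken from per-well concentrations.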

[2] = target: T2, ΔF508-CFTR (Homo sapiens, UniProt P13569, DEL508-508); test: CFTR cell surface levels using HRP-tagged ΔF508-CFTR expressing CFBE cells, intrinsic corrector capacity; design: % Activation: concentration or dose not given beside the values; conditions: HRP-tagged ΔF508-CFTR expressing CFBE41o- cells, compound alone (intrinsic corrector capacity), 20 hours at 33° C.; for EC50: read-out: EC50
T2 construct: host or cells: CFBE41o-, doxycycline-inducible
T2 sequence (P13569 with tags, fused parts or gaps DEL508-508): as above
How it was run: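 Surface ΔF508-CFTR was measured as HRP chemiluminescence from an extracellular-loop-4 tag, expressed as percent activity between DMSO and a […] corrector control.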

[3] = target: T2, ΔF508-CFTR; test: CFTR cell surface levels using HRP-tagged ΔF508-CFTR expressing CFBE cells, in the presence of a co-corrector; conditions: HRP-tagged ΔF508-CFTR CFBE cells, in the presence of 3 μM co-corrector; for EC50: read-out: EC50
How it was run: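 Chemiluminescent read-out of surface HRP (15 min, dark) after PBS washes. Activity is normalized as 100×(sample−DMSO)/(3 μM co-corrector alone−DMSO).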

Row | Compound | EC50 [1] | % Activity at 1 μM (AUC**) [1] | % Activation [2] | EC50 [2] | % Activation [3] | EC50 [3] | % Activity at 3 μM (AUC**) [1]
1 | CN(C)S(=O)(=O)NC(=O)c1cc(N2CCC(N3CCC(F)(F)CC3)CC2)c2c(C3CCC3)nn(-c3ccc(F)cc3)c2n1 [Compound 526, 3-cyclobutyl-4-(4,4-difluoro[1,4'-bipiperidin]-1'-yl)-N-(dimethylsulfamoyl)-1-(4-fluorophenyl)-1H-pyrazolo[3,4-b]pyridine-6-carboxamide] | 14.2 nM | 400% | 269.23% | 153 nM | 472.58% | 107 nM | –
2 | CN(C)S(=O)(=O)NC(=O)c1cc(N2CCC(N3CCOC(C#N)C3)CC2)c2c(C3CCC3)nn(-c3ccc(F)cc3)c2n1 (stereo not drawn) [Compound 527, 4-[4-(2-cyanomorpholin-4-yl)piperidin-1-yl]-3-cyclobutyl-N-(dimethylsulfamoyl)-1-(4-fluorophenyl)-1H-pyrazolo[3,4-b]pyridine-6-carboxamide] | – | 370.693% | 295.95% | 79.1 nM | 500% | 53.8 nM | –
3 | CC(C)Oc1cc(-n2nc(C3CCC3)c3c(N4CCC(N5CCOCC5)CC4)cc(C(=O)NS(=O)(=O)N(C)C)nc32)ccn1 [Compound 529, 3-cyclobutyl-N-(dimethylsulfamoyl)-4-[4-(morpholin-4-yl)piperidin-1-yl]-1-{2-[(propan-2-yl)oxy]pyridin-4-yl}-1H-pyrazolo[3,4-b]pyridine-6-carboxamide] | 19.1 nM | 520% | 278.55% | 60.6 nM | 444.13% | 22.6 nM | –
4 | CC(C)Oc1cc(-n2nc(C3CCC3)c3c(N4CCC(N5CCOCC5)CC4)cc(C(=O)NS(C)(=O)=O)nc32)ccn1 [Compound 530, 3-cyclobutyl-N-(methanesulfonyl)-4-[4-(morpholin-4-yl)piperidin-1-yl]-1-{2-[(propan-2-yl)oxy]pyridin-4-yl}-1H-pyrazolo[3,4-b]pyridine-6-carboxamide] | – | 326.6667% | 323.1% | 54.4 nM | 464.6% | 23 nM | –
5 | Cc1cc(N2CCN(c3cc(C(=O)NS(=O)(=O)N(C)C)nc4c3c(C3CCC3)nn4C3CCCCC3)CC2)ccn1 [Compound 535, 3-cyclobutyl-1-cyclohexyl-N-(dimethylsulfamoyl)-4-[4-(2-methylpyridin-4-yl)piperazin-1-yl]-1H-pyrazolo[3,4-b]pyridine-6-carboxamide] | – | 335.0294% | 385.8% | 389 nM | 670.35% | 1250 nM | –
6 | O=C(NS(=O)(=O)N1CCC(F)C1)c1cc(N2CCC(N3CCOCC3)CC2)c2c(C3CCC3)nn(-c3ccc(F)cc3)c2n1 (stereo not drawn) [Compound 537, 3-cyclobutyl-1-(4-fluorophenyl)-N-(3-fluoropyrrolidine-1-sulfonyl)-4-[4-(morpholin-4-yl)piperidin-1-yl]-1H-pyrazolo[3,4-b]pyridine-6-carboxamide] | – | – | 214.5% | 112 nM | 417.1% | 50.8 nM | 261.5724%
7 | CN(C)S(=O)(=O)NC(=O)c1cc(N2CCC(N3CCC(F)C3)CC2)c2c(C3CCC3)nn(-c3ccc(F)cc3)c2n1 (stereo not drawn) [Compound 541, 3-cyclobutyl-N-(dimethylsulfamoyl)-1-(4-fluorophenyl)-4-[4-(3-fluoropyrrolidin-1-yl)piperidin-1-yl]-1H-pyrazolo[3,4-b]pyridine-6-carboxamide] | – | 320% | 231.7% | 444 nM | 457.2% | 115 nM | –
8 | CC(C)Oc1nn(C2CCCCC2)c2nc(C(=O)NS(=O)(=O)N(C)C)cc(-c3ccc(C(=O)N4CCC(N(C)C)CC4)cc3)c12 [Compound 546, 1-cyclohexyl-4-{4-[4-(dimethylamino)piperidine-1-carbonyl]phenyl}-N-(dimethylsulfamoyl)-3-[(propan-2-yl)oxy]-1H-pyrazolo[3,4-b]pyridine-6-carboxamide] | – | – | 138.05% | 325 nM | 335.3% | 182 nM | 282.0317%
9 | CN(C)S(=O)(=O)NC(=O)c1cc(N2CCC(N3CCN(C4CC4)CC3)CC2)c2c(C3CCC3)nn(-c3ccccc3)c2n1 [Compound 549, 3-cyclobutyl-4-[4-(4-cyclopropylpiperazin-1-yl)piperidin-1-yl]-N-(dimethylsulfamoyl)-1-phenyl-1H-pyrazolo[3,4-b]pyridine-6-carboxamide] | 243 nM | 373.3333% | 276.9% | 233 nM | 476.35% | 180 nM | –
10 | CN1CCN(c2ccc(-c3cc(C(=O)NS(=O)(=O)N(C)C)nc4c3c(C3CCC3)nn4C3CCCCC3)cn2)CC1 [Compound 551, 3-cyclobutyl-1-cyclohexyl-N-(dimethylsulfamoyl)-4-[6-(4-methylpiperazin-1-yl)pyridin-3-yl]-1H-pyrazolo[3,4-b]pyridine-6-carboxamide] | – | 239.0643% | 197.8% | 763 nM | 403.1% | 382 nM | –
11 | O=C(NS(=O)(=O)N1CCOCC1)c1cc(N2CCC(N3CCN(C4CC4)CC3)CC2)c2c(C3CCC3)nn(-c3ccccc3)c2n1 [Compound 555, 3-cyclobutyl-4-[4-(4-cyclopropylpiperazin-1-yl)piperidin-1-yl]-N-(morpholine-4-sulfonyl)-1-phenyl-1H-pyrazolo[3,4-b]pyridine-6-carboxamide] | 107 nM | 296.6667% | 235.5% | 359 nM | 432.55% | 104 nM | –
12 | CNS(=O)(=O)NC(=O)c1cc(N2CCC(N3CCN(C4CC4)CC3)CC2)c2c(C3CCC3)nn(-c3ccccc3)c2n1 [Compound 558, 3-cyclobutyl-4-[4-(4-cyclopropylpiperazin-1-yl)piperidin-1-yl]-N-(methylsulfamoyl)-1-phenyl-1H-pyrazolo[3,4-b]pyridine-6-carboxamide] | 4.74 nM | 221.9818% | 399.1% | 532 nM | 571.35% | 106 nM | –
13 | CN(C)S(=O)(=O)NC(=O)c1cc(N2CCC(N3CCC(C#N)C3)CC2)c2c(C3CCC3)nn(-c3ccc(F)cc3)c2n1 (stereo not drawn) [Compound 561, 4-[4-(3-cyanopyrrolidin-1-yl)piperidin-1-yl]-3-cyclobutyl-N-(dimethylsulfamoyl)-1-(4-fluorophenyl)-1H-pyrazolo[3,4-b]pyridine-6-carboxamide] | – | 620% | 311.6% | 107 nM | 509.4% | 43 nM | –
14 | CN(C)S(=O)(=O)NC(=O)c1cc(N2CCC(N3CCCC(C#N)C3)CC2)c2c(C3CCC3)nn(-c3ccc(F)cc3)c2n1 (stereo not drawn) [Compound 562, 4-(3-cyano[1,4'-bipiperidin]-1'-yl)-3-cyclobutyl-N-(dimethylsulfamoyl)-1-(4-fluorophenyl)-1H-pyrazolo[3,4-b]pyridine-6-carboxamide] | – | 289.8854% | 341.3% | 70.5 nM | 589.55% | 77.6 nM | –
15 | COC1CN(C2CCN(c3cc(C(=O)NS(=O)(=O)N(C)C)nc4c3c(C3CCC3)nn4-c3ccc(F)cc3)CC2)C1 [Compound 570, 3-cyclobutyl-N-(dimethylsulfamoyl)-1-(4-fluorophenyl)-4-[4-(3-methoxyazetidin-1-yl)piperidin-1-yl]-1H-pyrazolo[3,4-b]pyridine-6-carboxamide] | – | – | 235.8% | 496 nM | 412.9% | 208 nM | 377.5594%
16 | CN(C)S(=O)(=O)NC(=O)c1cc(N2CCC(N3CCOCC3)CC2)c2c(C3CCC3)nn(-c3ccnc(OC(F)F)c3)c2n1 [Compound 575, 3-cyclobutyl-1-[2-(difluoromethoxy)pyridin-4-yl]-N-(dimethylsulfamoyl)-4-[4-(morpholin-4-yl)piperidin-1-yl]-1H-pyrazolo[3,4-b]pyridine-6-carboxamide] | – | 246.6667% | 202.65% | 147 nM | 361.3% | 87.8 nM | –
17 | O=C(NS(=O)(=O)N1CCC1)c1cc(N2CCC(N3CCOCC3)CC2)c2c(C3CCC3)nn(-c3ccc(F)cc3)c2n1 [Compound 576, N-(azetidine-1-sulfonyl)-3-cyclobutyl-1-(4-fluorophenyl)-4-[4-(morpholin-4-yl)piperidin-1-yl]-1H-pyrazolo[3,4-b]pyridine-6-carboxamide] | – | – | 257.15% | 139 nM | 443.5% | 54.7 nM | 225.798%
